Structures can show the parent of a compound that is named as a salt. Blank lines part the entries; values can stand above or below the molecule they belong to.
Legend:
Type in all cases: physicochemical
[1] = High temperature test (60° C. incubator); conditions: for Appearance color / Loss on drying (%) / Purity (%) / Relevant substances: 60° C., hydrochloride; for Stability (conclusion in words): high temperature, no obvious changes in appearance color, loss on drying, purity, relevant substances
Description: Revaprazan hydrochloride crystalline form I is placed in a 60° C. incubator, and is sampled on the 5th day and 10th day for detection, and the results are shown in Table 2. Revaprazan hydrochloride crystalline form II is placed in a 60° C. incubator, and is sampled on the 5th day and 10th day for detection, and the results are shown in Table 6. Revaprazan hydrochloride polymorph III is placed in an incubator of 60° C., and is sampled on the 5th day and the 10th day for detection. Revaprazan hydrochloride crystalline form IV is placed in an incubator of 60° C., and is sampled on the 5th day and the 10th day for detection. Revaprazan hydrochloride crystal form 4 is placed in an incubator of 60° C.; and is sampled on the 5th day and the 10th day for detection, and the results are shown in Table 23.

[2] = Light illumination test (intense light, 4500±500 Lx); conditions: for Stability (conclusion in words): intense light illumination, no obvious changes in appearance color, loss on drying, purity, relevant substances; for Appearance color / Loss on drying (%) / Purity (%) / Relevant substances: light 4500±500 Lx; for Loss on drying (%) / Purity (%) / Relevant substances: hydrochloride
Description: Revaprazan hydrochloride crystalline form I is irradiated under such a condition that the light intensity is 4500±500 Lx, and is sampled on the 5th day and 10th day for detection, and the results are shown in Table 1. Revaprazan hydrochloride crystalline form II is irradiated under the condition that the light intensity is 4500±500Lx, and is sampled on the 5th day and 10th day for detection. Revaprazan hydrochloride polymorph III is irradiated under such a condition that the light intensity is 4500±500Lx, and is sampled on the 5th day and 10th day for detection. Revaprazan hydrochloride […] is irradiated under such a condition that the light intensity is 4500±500Lx, and is sampled on the 5th day and the 10th day for detection. Revaprazan hydrochloride crystalline form V is irradiated under the light intensity condition of 4500±500Lx; and is sampled on the 5th day and 10th day for detection.

[3] = High humidity test (25° C., relative humidity 75±5%); conditions: for Appearance color / Purity (%) / Weight gain upon moisture absorption (%) / Relevant substances: 25° C., RH 75±5%; for Weight gain upon moisture absorption (in words): high humidity condition; for Stability (conclusion in words): high humidity, no obvious changes in appearance color, purity, relevant substances
Description: Revaprazan hydrochloride crystalline form I is placed in an incubator of 25° C. (relative humidity of 75±5%), and is sampled on the 5th day and 10th day for detection. Revaprazan hydrochloride crystalline form II is placed in an incubator of 25° C. (relative humidity of 75±5%), and is sampled on the 5th day and 10th day for detection. Revaprazan hydrochloride polymorph III is placed in an incubator of 25° C. (relative humidity of 75±5%), and is sampled on the 5th day and the 10th day for detection. Revaprazan hydrochloride crystalline form IV is placed in an incubator of 25° C. Revaprazan hydrochloride crystal form 4 is placed in an incubator of 25° C. (the relative humidity is 75±5%), and is sampled on the 5th day and the 10th day for detection.

[4] = Accelerated test (40±2° C., relative humidity 75±5%, 6 months, sealed polyethylene film bag); conditions: for Appearance color / Purity (%) / Relevant substances: 40±2° C., RH 75±5%; for Purity (%) / Relevant substances: hydrochloride; for Stability (conclusion in words): accelerated test, no obvious changes in appearance color, purity, relevant substances
Description: Revaprazan hydrochloride crystalline form I is sealed in a polyethylene film bag, is placed for 6 months under the conditions that the temperature is 40±2° C. and the relative humidity is 75±5%, and is respectively sampled at the end of the 1st Month, the 2nd Month, the 3rd Month and the 6^thMonth for detection; and the results are shown in Table 4. Revaprazan hydrochloride crystalline form II is sealed in a polyethylene film bag and is placed for 6 months under the conditions that the temperature is 40±2° C. and the relative humidity is 75±5%, and is respectively sampled at the end of the 1st Month, the 2nd Month, the 3rd Month and the 6th Month for detection; and the results are shown in Table 8. Revaprazan hydrochloride crystalline form III is sealed in a polyethylene film bag, is placed for 6 months under the conditions that the temperature is 40±2° C. and the relative humidity is 75±5%, and is sampled at the end of the 1st Month, the 2nd Month, the 3rd Month and the 6th Month for detection. Revaprazan hydrochloride crystalline form IV is sealed in a polyethylene film bag, is placed for 6 months under the conditions that the temperature is 40±2° C. and the relative humidity is 75±5%, and is sampled at the end of the 1st Month, the 2nd Month, the 3rd Month and the 6th Month for detection. Revaprazan hydrochloride crystalline form V is sealed in a polyethylene film bag and is placed for 6 months under the condition that the temperature is 40±2° C. and the relative humidity is 75±5%, and is sampled at the end of the 1st month, the 2nd month, the 3rd month and the 6th month for detection, and the results are shown in Table 20.

Appearance color ([1]; 5th day): White powder | Loss on drying (%) ([1]; 5th day): 0.27% | Purity (%) ([1]; 5th day): 99.91% | Relevant substances ([1]; 5th day): Undetected | Appearance color ([1]; 10th day): White powder | Loss on drying (%) ([1]; 10th day): 0.27% | Purity (%) ([1]; 10th day): 99.92% | Relevant substances ([1]; 10th day): Undetected | Appearance color ([1]; Day 0): White powder | Loss on drying (%) ([1]; Day 0): 0.25% | Purity (%) ([1]; Day 0): 99.93% | Relevant substances ([1]; Day 0): Undetected | Stability (conclusion in words) [1]: stable | Stability (conclusion in words) [2]: stable | Appearance color ([2]; 5th day): White powder | Loss on drying (%) ([2]; 5th day): 0.29% | Purity (%) ([2]; 5th day): 99.95% | Relevant substances ([2]; 5th day): Undetected | Appearance color ([2]; 10th day): White powder | Loss on drying (%) ([2]; 10th day): 0.31% | Purity (%) ([2]; 10th day): 99.92% | Relevant substances ([2]; 10th day): Undetected | Appearance color ([2]; Day 0): White powder | Loss on drying (%) ([2]; Day 0): 0.27% | Purity (%) ([2]; Day 0): 99.93% | Relevant substances ([2]; Day 0): Undetected | Appearance color ([3]; 5th day): White powder | Purity (%) ([3]; 5th day, hydrochloride): 99.96% | Weight gain upon moisture absorption (%) ([3]; 5th day, hydrochloride): 0.44% | Appearance color ([3]; 10th day): White powder | Purity (%) ([3]; 10th day, hydrochloride): 99.93% | Weight gain upon moisture absorption (%) ([3]; 10th day, hydrochloride): 0.62% | Appearance color ([3]; Day 0): White powder | Weight gain upon moisture absorption (%) ([3]; Day 0): 0% | Purity (%) ([3]; Day 0, hydrochloride): 99.93% | Weight gain upon moisture absorption (in words) [3]: slight weight gain | Stability (conclusion in words) [3]: stable | Appearance color ([4]; 1st month): White powder | Purity (%) ([4]; 1st month): 99.91% | Relevant substances ([4]; 1st month): Undetected | Appearance color ([4]; 2nd month): White powder | Purity (%) ([4]; 2nd month): 99.90% | Relevant substances ([4]; 2nd month): Undetected | Appearance color ([4]; 3rd month): White powder | Purity (%) ([4]; 3rd month): 99.95% | Relevant substances ([4]; 3rd month): Undetected | Appearance color ([4]; 6th month): White powder | Purity (%) ([4]; 6th month): 99.94% | Relevant substances ([4]; 6th month): Undetected | Appearance color ([4]; Month 0): White powder | Purity (%) ([4]; Month 0): 99.93% | Relevant substances ([4]; Month 0): Undetected | Stability (conclusion in words) [4]: stable
SMILES: Cc1nc(Nc2ccc(F)cc2)nc(N2CCc3ccccc3C2C)c1C (single isomer, unassigned) [revaprazan hydrochloride crystalline form IV]

Appearance color ([1]; 5th day): White powder | Loss on drying (%) ([1]; 5th day): 0.23% | Purity (%) ([1]; 5th day): 99.95% | Relevant substances ([1]; 5th day): Not detected | Appearance color ([1]; 10th day): White powder | Loss on drying (%) ([1]; 10th day): 0.24% | Purity (%) ([1]; 10th day): 99.98% | Relevant substances ([1]; 10th day): Not detected | Appearance color ([1]; Day 0): White powder | Loss on drying (%) ([1]; Day 0): 0.21% | Purity (%) ([1]; Day 0): 99.96% | Relevant substances ([1]; Day 0): Not detected | Stability (conclusion in words) [1]: stable | Stability (conclusion in words) [2]: stable | Appearance color ([2]; 5th day): White powder | Loss on drying (%) ([2]; 5th day): 0.28% | Purity (%) ([2]; 5th day): 99.92% | Relevant substances ([2]; 5th day): Not detected | Appearance color ([2]; 10th day): White powder | Loss on drying (%) ([2]; 10th day): 0.30% | Purity (%) ([2]; 10th day): 99.94% | Relevant substances ([2]; 10th day): Not detected | Appearance color ([2]; Day 0): White powder | Loss on drying (%) ([2]; Day 0): 0.27% | Purity (%) ([2]; Day 0): 99.96% | Relevant substances ([2]; Day 0): Not detected | Appearance color ([3]; 5th day): White powder | Purity (%) ([3]; 5th day, hydrochloride): 99.93% | Relevant substances ([3]; 5th day, hydrochloride): Not detected | Weight gain upon moisture absorption (%) ([3]; 5th day, hydrochloride): 0.42% | Appearance color ([3]; 10th day): White powder | Purity (%) ([3]; 10th day, hydrochloride): 99.95% | Relevant substances ([3]; 10th day, hydrochloride): Not detected | Weight gain upon moisture absorption (%) ([3]; 10th day, hydrochloride): 0.63% | Appearance color ([3]; Day 0): White powder | Weight gain upon moisture absorption (%) ([3]; Day 0): 0% | Purity (%) ([3]; Day 0, hydrochloride): 99.96% | Relevant substances ([3]; Day 0, hydrochloride): Not detected | Weight gain upon moisture absorption (in words) [3]: slight weight gain | Stability (conclusion in words) [3]: stable | Appearance color ([4]; 1st month): White powder | Purity (%) ([4]; 1st month): 99.97% | Relevant substances ([4]; 1st month): Not detected | Appearance color ([4]; 2nd month): White powder | Purity (%) ([4]; 2nd month): 99.92% | Relevant substances ([4]; 2nd month): Not detected | Appearance color ([4]; 3rd month): White powder | Purity (%) ([4]; 3rd month): 99.96% | Relevant substances ([4]; 3rd month): Not detected | Appearance color ([4]; 6th month): White powder | Purity (%) ([4]; 6th month): 99.95% | Relevant substances ([4]; 6th month): Not detected | Appearance color ([4]; Month 0): White powder | Purity (%) ([4]; Month 0): 99.96% | Relevant substances ([4]; Month 0): Not detected | Stability (conclusion in words) [4]: stable
SMILES: Cc1nc(Nc2ccc(F)cc2)nc(N2CCc3ccccc3C2C)c1C (single isomer, unassigned) [revaprazan hydrochloride crystalline form I]
